Test results taken from patent US9284595B2 (priority 2012, dated 2016).

How the values were obtained:
BoNT/A-LC [1] = biological target: T1, BoNT/A-LC (Clostridium botulinum, UniProt P0DPI0); type: biochemical
BoNT/A Holotoxin = BoNT/A Holotoxin (Clostridium botulinum, UniProt P0DPI0); type: biochemical
BoNT/A-LC [2] = biological target: T1, BoNT/A-LC; type: biochemical; remark: listed apart in the source
[3] = biological target: heat inactivated BoNT/A-LC (Clostridium botulinum, UniProt P0DPI0)
BoNT/A Toxoid = BoNT/A Toxoid (Clostridium botulinum, UniProt P0DPI0)
Sequence of BoNT/A Toxoid (P0DPI0 2-448 limits assumed): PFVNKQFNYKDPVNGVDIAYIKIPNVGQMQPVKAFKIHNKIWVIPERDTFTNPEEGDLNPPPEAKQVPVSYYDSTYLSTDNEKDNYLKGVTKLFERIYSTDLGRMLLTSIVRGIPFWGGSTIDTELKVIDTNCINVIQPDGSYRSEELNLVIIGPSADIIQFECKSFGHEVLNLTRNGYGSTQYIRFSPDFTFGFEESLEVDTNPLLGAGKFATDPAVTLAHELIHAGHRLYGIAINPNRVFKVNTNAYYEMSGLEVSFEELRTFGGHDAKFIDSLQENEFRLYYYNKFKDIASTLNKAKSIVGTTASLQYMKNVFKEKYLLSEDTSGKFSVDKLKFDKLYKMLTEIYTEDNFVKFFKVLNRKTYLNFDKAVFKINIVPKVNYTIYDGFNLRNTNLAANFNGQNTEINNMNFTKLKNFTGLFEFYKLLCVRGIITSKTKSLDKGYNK

T1 sequence (P0DPI0 2-448 limits assumed): as above
Sequence of BoNT/A Holotoxin (P0DPI0 2-448 limits assumed): as above
Sequence of heat inactivated BoNT/A-LC (P0DPI0 2-448 limits assumed): as above

## O[C@H](CS)[C@H](O)CS (racemic) [DTT, Dithiothreitol]
BoNT/A-LC [1]
  effect on BoNT/A-LC activity: reduced BoNT/A-LC activity

## O=C(O)CCP(CCC(=O)O)CCC(=O)O [TCEP, tris(2-carboxyethyl)phosphine, reference compound]
BoNT/A Holotoxin
  performance of TCEP concentration in BoNT/A Holotoxin assay: samples with 1.0 mM TCEP performed better than samples with 2.0 mM TCEP
BoNT/A-LC [2]
  performance of reducing agent in BoNT/A-LC assay: performed better than samples with DTT (and zinc), and even better than samples containing no reducing agent

## (KDabcyl)TRIDEANQRATKML(K5Fam) [SEQ. ID NO. 6]
BoNT/A-LC [2]
  detection of BoNT/A-LC activity: incapable of detecting BoNT/A-LC activity

## MDENLEQVSGIIGNLRHMALDMGNEIDTQNRQIDRIMEKADSN(KDabcyl)TRIDEANQRATKML(K5Fam) [SEQ. ID NO. 1]
[3]
  detection of heat inactivated BoNT/A-LC: not heat inactivated BoNT/A-LC, even when present at high concentrations
BoNT/A-LC [2]
  detection of BoNT/A-LC activity: able to detect BoNT/A-LC
  detection of BoNT/A-LC activity in the presence of common PCR inhibitors: can detect BoNT/A-LC activity in the presence of common PCR inhibitors
  detection of biologically active BoNT/A-LC: able to detect biologically active BoNT/A-LC
  fluorescence response to BoNT/A-LC: able to detect biologically active BoNT/A-LC
  increase in fluorescence overtime compared to SNAPtide: greater increase in fluorescence overtime
  limit of detection of BoNT/A-LC: at least 0.04 ng
BoNT/A Toxoid
  detection of BoNT/A Toxoid: not BoNT/A Toxoid, even when present at high concentrations
